Assay results published in ChEMBL document CHEMBL1201862, “PubChem BioAssay data set” (2004).
Values joined by “and” are separate entries in the source; they are usually repeats but may differ in a detail not shown here. Equal entries are not always repeated. Active and inactive are the calls of the source.

Experiments:
[1] = molecular target: T1, Heat shock factor protein 1 (Mus musculus, UniProt P38532); assay: inhibition of MG132-induced HSE-luciferase signal, confirmation, cell-based, NIH3T3, luminescence, dose retest (AID 2382); type: functional;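 further: NIH3T3 fibroblasts with HSF1-driven luciferase reporter stressed by proteasome inhibitor MG132; luminescence from HSF1-driven luciferase expression after 8 hours of MG132 stress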
T1 sequence (P38532 whole entry): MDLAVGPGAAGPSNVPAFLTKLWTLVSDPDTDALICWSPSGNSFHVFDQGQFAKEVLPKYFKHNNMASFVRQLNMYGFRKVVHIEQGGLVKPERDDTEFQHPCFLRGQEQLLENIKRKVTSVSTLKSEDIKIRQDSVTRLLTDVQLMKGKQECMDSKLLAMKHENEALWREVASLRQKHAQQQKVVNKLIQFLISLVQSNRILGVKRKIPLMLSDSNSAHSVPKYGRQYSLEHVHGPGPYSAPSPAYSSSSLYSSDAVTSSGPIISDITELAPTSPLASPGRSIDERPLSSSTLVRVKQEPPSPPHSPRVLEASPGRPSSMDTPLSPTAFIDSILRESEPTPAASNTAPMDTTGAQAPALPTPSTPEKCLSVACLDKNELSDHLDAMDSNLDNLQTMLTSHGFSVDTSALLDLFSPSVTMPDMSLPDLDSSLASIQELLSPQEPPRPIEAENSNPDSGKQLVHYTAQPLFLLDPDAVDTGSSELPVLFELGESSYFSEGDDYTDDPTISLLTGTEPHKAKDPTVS

Cytochrome P450 2C9 = Cytochrome P450 2C9 (Homo sapiens, UniProt P11712)
[2] = inhibitors of intracellular T. cruzi replication, confirmation, NIH3T3 host cells, beta-gal luminescence (AID 2044); type: functional, cell-based;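 further: intracellular parasites grown in NIH/3T3 mouse fibroblasts as host cells; luminescent beta-galactosidase reporter signal from transgenic T. cruzi replicating inside host cells; inhibitors lower the luminescence signal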
[3] = cytotoxicity toward NIH3T3 fibroblasts, dose response, counter-screen, cell-based, ATP luminescence, mouse fibroblasts (AID 2010); type: functional;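 further: cells exposed to compound for about 90 hours before reading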
Cytochrome P450 2C19 = Cytochrome P450 2C19 (Homo sapiens, UniProt P33261); assay: Cytochrome panel assay with activity outcomes. Panel member name: p450-cyp2c19 Compounds with AC50 equal or less than 10 uM are considered active; type: functional
Streptococcus = assay: Group A Streptococcus viability loss, dose response, counter-screen for streptokinase expression inhibitor project, luminescence, BacTiterGlo (AID 1915); type: functional, organism-based;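 further: potency for reduction of bacterial viability or growth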
Cytochrome P450 2D6 = Cytochrome P450 2D6 (Homo sapiens, UniProt P10635);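 further: CYP2D6 member of a cytochrome P450 panel assay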
[4] = test system: Streptococcus sp. 'group A'; assay: growth inhibition of control SK(-) GAS strain, dose response, counter-screen for streptokinase expression inhibitor project, luminescence, kanamycin, BacTiterGlo, confirmation (AID 1900); type: functional, organism-based
Cytochrome P450 1A2 = molecular target: T2, Cytochrome P450 1A2 (Homo sapiens, UniProt P05177);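 further: PubChem cytochrome P450 panel assay, CYP1A2 panel member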
T2 sequence (P05177 whole entry): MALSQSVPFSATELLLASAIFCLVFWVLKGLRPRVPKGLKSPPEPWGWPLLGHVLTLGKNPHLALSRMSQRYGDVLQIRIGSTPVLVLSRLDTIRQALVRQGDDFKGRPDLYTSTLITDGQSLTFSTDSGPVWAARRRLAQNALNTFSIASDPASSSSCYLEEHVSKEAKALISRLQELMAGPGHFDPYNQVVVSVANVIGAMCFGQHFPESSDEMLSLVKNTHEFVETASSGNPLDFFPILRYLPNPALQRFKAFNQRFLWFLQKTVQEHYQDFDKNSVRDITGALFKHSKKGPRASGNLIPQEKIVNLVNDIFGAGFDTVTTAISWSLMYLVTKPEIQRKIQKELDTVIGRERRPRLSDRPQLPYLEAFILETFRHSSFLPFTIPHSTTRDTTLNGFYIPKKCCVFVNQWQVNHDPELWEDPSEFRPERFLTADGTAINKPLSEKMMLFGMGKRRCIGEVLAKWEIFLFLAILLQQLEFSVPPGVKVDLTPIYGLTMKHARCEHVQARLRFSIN

Cytochrome P450 2C19, sequence (P33261 whole entry): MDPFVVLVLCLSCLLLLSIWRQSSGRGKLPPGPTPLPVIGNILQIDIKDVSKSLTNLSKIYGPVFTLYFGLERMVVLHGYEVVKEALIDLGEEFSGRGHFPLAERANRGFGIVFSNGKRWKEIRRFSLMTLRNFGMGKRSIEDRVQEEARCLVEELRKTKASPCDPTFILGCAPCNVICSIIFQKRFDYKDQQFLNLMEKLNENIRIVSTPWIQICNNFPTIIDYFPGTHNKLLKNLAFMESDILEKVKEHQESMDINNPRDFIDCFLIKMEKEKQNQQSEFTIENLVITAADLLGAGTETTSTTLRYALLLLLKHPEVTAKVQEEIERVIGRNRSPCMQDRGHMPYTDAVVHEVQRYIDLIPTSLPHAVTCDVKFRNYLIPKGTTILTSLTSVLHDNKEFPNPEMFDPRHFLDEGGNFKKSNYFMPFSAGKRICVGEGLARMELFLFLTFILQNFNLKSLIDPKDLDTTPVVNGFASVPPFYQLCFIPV
Cytochrome P450 2D6, sequence (P10635 whole entry): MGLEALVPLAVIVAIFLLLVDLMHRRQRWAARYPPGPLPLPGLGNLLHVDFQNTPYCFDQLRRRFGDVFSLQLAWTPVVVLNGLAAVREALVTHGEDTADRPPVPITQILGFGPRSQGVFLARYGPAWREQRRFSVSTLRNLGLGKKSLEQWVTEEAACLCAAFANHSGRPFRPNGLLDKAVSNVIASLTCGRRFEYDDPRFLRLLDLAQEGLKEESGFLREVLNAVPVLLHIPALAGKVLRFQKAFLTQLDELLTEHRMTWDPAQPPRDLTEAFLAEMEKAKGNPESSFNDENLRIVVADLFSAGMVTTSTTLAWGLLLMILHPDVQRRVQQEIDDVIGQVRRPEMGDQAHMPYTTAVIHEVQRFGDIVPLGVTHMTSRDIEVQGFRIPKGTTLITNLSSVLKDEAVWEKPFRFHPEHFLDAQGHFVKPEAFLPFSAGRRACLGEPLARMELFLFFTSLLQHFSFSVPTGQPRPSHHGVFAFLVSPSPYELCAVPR
Cytochrome P450 2C9, sequence (P11712 whole entry): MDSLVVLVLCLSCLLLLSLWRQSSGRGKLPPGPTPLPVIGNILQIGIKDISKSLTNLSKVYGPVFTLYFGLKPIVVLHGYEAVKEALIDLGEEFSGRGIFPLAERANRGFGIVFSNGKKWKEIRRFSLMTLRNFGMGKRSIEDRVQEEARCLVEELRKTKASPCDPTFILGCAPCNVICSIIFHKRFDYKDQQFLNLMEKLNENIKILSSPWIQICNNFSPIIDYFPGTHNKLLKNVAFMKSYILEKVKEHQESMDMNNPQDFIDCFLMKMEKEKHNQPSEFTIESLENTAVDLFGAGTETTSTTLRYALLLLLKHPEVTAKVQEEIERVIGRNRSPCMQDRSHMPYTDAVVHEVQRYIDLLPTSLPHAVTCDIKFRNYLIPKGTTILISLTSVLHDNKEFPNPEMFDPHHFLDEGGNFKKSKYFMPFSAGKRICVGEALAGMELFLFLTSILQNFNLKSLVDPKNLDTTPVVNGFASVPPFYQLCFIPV

Cc1ccc(OCC(O)CN2C(=O)NC(C)(C)C2=O)cc1C (configuration not stated)
EC50 [1]: > 195 µM (not active)

Cc1ccnc(NCn2nnc3ccccc32)c1
AC50 (Cytochrome P450 2C9): 22.4 µM (inconclusive)

CC(C)C(=O)N1CCN(c2cc(N3CCN(C)CC3)c(F)cc2[N+](=O)[O-])CC1
EC50 [2]: 0.625 µM (active) | EC50 [3]: > 60 µM (not active)

CN1C(=O)CC(NNC(=O)c2ccccc2)C1=O (configuration not stated)
AC50 (Cytochrome P450 2C19): inconclusive

O=C(NC(=S)N(CCCCO)C1CCCCC1)c1sc2ccccc2c1Cl
EC50 (Streptococcus): 7.75 µM (active) | AC50 (Cytochrome P450 2D6): 22.4 µM (inconclusive) | EC50 [4]: 0.891 µM (active)

Cc1noc(C)c1-c1cncnc1N1CCN(C)CC1
AC50 (Cytochrome P450 2C19): inconclusive | AC50 (Cytochrome P450 2D6): 39.8 µM (inconclusive)

CCOC(=O)N1CCC(NC(=O)CS(=O)(=O)Cc2nc(-c3cccc(OC)c3)oc2C)CC1
AC50 (Cytochrome P450 2C19; read-out: AC50): 39.8 µM (inconclusive)

Cc1c(Cl)c([N+](=O)[O-])nn1CC(=O)Nc1c(C)n(C)n(-c2ccccc2)c1=O
AC50 (Cytochrome P450 2C9): 14.1 µM (inconclusive) | AC50 (Cytochrome P450 2C19; read-out: AC50): 1.78 µM (inconclusive)

CC(C)c1ccc(NC(=O)c2cc3c(=O)n(C)c4ccccc4c3n2C)cc1
EC50 [2]: 1.12 µM (active) | EC50 [3]: 16.2 µM (active)

COc1ccc(-n2c(-c3ccc(F)cc3)cnc2SCC(=O)NCc2ccco2)cc1
EC50 [1]: > 195 µM (not active)

O=[N+]([O-])c1cccc(/C=N\Nc2ccc3ccccc3n2)c1O
AC50 (Cytochrome P450 2C9): 1 µM (inconclusive) | AC50 (Cytochrome P450 2C19; read-out: AC50): 6.31 µM (inconclusive)

COC(=O)c1ccccc1NC(=O)C1CCN(C(=O)c2ccc(OC)cc2)CC1
AC50 (Cytochrome P450 2C9): 8.91 µM (inconclusive)

Cc1c(C(=O)Nc2nccs2)sc2nc(-c3cccs3)cc(C(F)(F)F)c12
AC50 (Cytochrome P450 2C19; read-out: AC50): 2.82 µM (inconclusive) | AC50 (Cytochrome P450 2D6): 3.98 µM (inconclusive)

Cc1ccc(/C=C/C(=O)Nc2ccc(O)c3c(=O)cc(-c4ccccc4Cl)oc23)cc1
EC50 [1]: > 195 µM (not active)

Cn1c(OCc2ccc3c(c2)OCO3)nc2c1c(=O)n(Cc1ccc(Cl)c(Cl)c1)c(=O)n2C
AC50 (Cytochrome P450 1A2): 14.1 µM (inconclusive)

C=CC[C@@H]1C=C[C@H](O/N=C2\c3cc(OC)ccc3O[C@H](c3cccc(OC)c3)[C@H]2O)[C@H](CO)O1
AC50 (Cytochrome P450 2C19; read-out: AC50): 3.16 µM (inconclusive) | AC50 (Cytochrome P450 2D6): 5.01 µM (inconclusive)

C[N+]12CCC(CC1)[C@@H](OC(=O)C(O)(c1ccccc1)c1ccccc1)C2
AC50 (Cytochrome P450 2D6): 12.6 µM (inconclusive)

CCCCN(C(=O)COc1ccc(C)cc1OC)c1c(N)n(CCC)c(=O)[nH]c1=O
EC50 [1]: > 195 µM (not active)

CN(CC(=O)NCc1cccnc1)S(=O)(=O)c1ccc2c(c1)c(=O)n(C)c(=O)n2C
EC50 [1]: > 195 µM (not active)

COc1cccc(-c2ccc3ncnc(NCc4cnc(C)cn4)c3c2)c1
AC50 (Cytochrome P450 2D6): 31.6 µM (inconclusive)

CC(=O)N1CCC2(CC1)CCN(c1ccc(-c3ccccc3)cc1)CC2
AC50 (Cytochrome P450 2C9): 25.1 µM (inconclusive)

COc1ccccc1CNc1ccnc(-c2ccccc2C(F)(F)F)n1
AC50 (Cytochrome P450 2C9): 0.0158 µM (inconclusive)

CCN(c1ccccc1)S(=O)(=O)c1ccc(Cl)c(C(=O)N(CC2CCCO2)C2CCS(=O)(=O)C2)c1 (configuration not stated)
EC50 [1]: > 195 µM (not active)

CCOc1ccc(-c2cc(C(=O)OC)nc3c2c(=O)n(C)c(=O)n3C)cc1
EC50 (Streptococcus): 4.33 µM (active) | EC50 [4]: 0.063 µM (active)

COc1ccc(CCNCC(O)COc2cccc(C(C)=O)c2)cc1OC (configuration not stated)
EC50 [2]: 0.225 µM (active) | EC50 [3]: > 60 µM (not active)

O=C1N=C(N2CCOCC2)S/C1=C\C=C/c1ccccc1
AC50 (Cytochrome P450 2C19; read-out: AC50): 35.5 µM (inconclusive)

Cc1cc(C(F)(F)F)n2nc(-c3cnn(C)c3C(F)(F)F)c(Cl)c2n1
AC50 (Cytochrome P450 2C9): 20 µM (inconclusive)

O=C(CS(=O)(=O)Cc1ccccc1)NCC1CCCO1 (configuration not stated)
EC50 [1]: > 195 µM (not active)

O=C(Cn1cnc2cc([N+](=O)[O-])ccc2c1=O)NC(=O)NCc1ccccc1
EC50 [2]: 0.223 µM (active) | EC50 [3]: > 60 µM (not active)

Cc1ccccc1OCC(=O)OCC(=O)c1ccc(-c2ccccc2)cc1
EC50 [1]: > 195 µM (not active)

FC(F)(F)c1cccc(NC(S)=NN=C(S)Nc2ccc(Cl)cc2)c1
EC50 (Streptococcus): 5.47 µM (active) | EC50 [4]: 3.28 µM (active)

CC1(C)Cc2nc3[nH]c(=S)n(-c4ccccc4)c(=O)c3cc2CO1
EC50 [1]: > 195 µM (not active)

COc1ccc(CCNC(=O)c2cc3c(=O)n4ccccc4nc3n(C3CCCCC3)c2=N)cc1
EC50 [2]: 2.17 µM (active) | EC50 [3]: > 60 µM (not active)

COC(=O)c1cc(NC(=O)/C=C/c2ccc3c(c2)OCO3)cc(C(=O)OC)c1
AC50 (Cytochrome P450 2C9): 0.126 µM (inconclusive)

Cc1cc(N2CCOCC2)nc(SCc2ccc(Cl)cc2Cl)n1
AC50 (Cytochrome P450 2D6): 15.8 µM (inconclusive)

CCC(C(=O)NC(C)(C)C)N(C(=O)Cn1nnc(-c2cccs2)n1)c1cnc2ccccc2c1 (configuration not stated)
AC50 (Cytochrome P450 2D6): 28.2 µM (inconclusive)

COc1cccc(C(=O)CC(=O)C(=O)Nc2cc(OC)c(OC)c(OC)c2)c1
EC50 [1]: > 195 µM (not active)

CC1CC(OCC(O)CN2CCN(Cc3ccccc3)CC2)CC(C)(C)C1 (configuration not stated)
AC50 (Cytochrome P450 2C9): 0.0251 µM (inconclusive)

CCC(C)c1ccc(NC(=O)C2CC2)cc1 (configuration not stated)
EC50 [1]: > 195 µM (not active)

O=C(c1cnccn1)N1CCC2(CC1)CN(Cc1ccccc1)C2
AC50 (Cytochrome P450 2C9): 31.6 µM (inconclusive) | AC50 (Cytochrome P450 2C19; read-out: AC50): 15.8 µM (inconclusive)

COc1ccc(C(=O)Nc2ccc(S(=O)(=O)N3CCCC3)cc2)c(OC)c1
EC50 [2]: 11.1 µM (active) | EC50 [3]: > 60 µM (not active)

Cc1ccc(N(Cc2ccco2)C(=O)c2ccc(N3CCCCC3)c([N+](=O)[O-])c2)cc1
EC50 [2]: 1.27 µM (active) | EC50 [3]: > 60 µM (not active)

O=[N+]([O-])c1nn(-c2ccccc2)[n+]([O-])c1N1CCN(c2ccccc2)CC1
EC50 [2]: 0.483 µM (active) | EC50 [3]: > 60 µM (not active)

Cc1ccc(C)c(NC(=O)C2C3CCCC2C3c2ccccc2)c1 (configuration not stated)
AC50 (Cytochrome P450 2C9): 3.16 µM (inconclusive)

Nc1ccccc1Nc1cc(-c2ccccc2)nn1-c1ccccc1
EC50 [2]: 7.72 µM (active) | EC50 [3]: > 60 µM (inconclusive)

Cc1nn(-c2ccccc2)c2c1C(=O)N(Cc1ccccc1)C(=O)C(C)(C)C2
AC50 (Cytochrome P450 2D6): 0.891 µM (inconclusive)

Clc1ccc(SCCN2CCNCC2)cc1
EC50 [2]: 0.511 µM (active) | EC50 [3]: 9.8 µM (active)

O=c1c2ccccc2ncn1-c1ccc([N+](=O)[O-])cc1[N+](=O)[O-]
EC50 [2]: 0.524 µM (active) | EC50 [3]: > 60 µM (not active)

Cc1cc(C)c2nc(O)c(C(c3nnnn3CC3CCCO3)N3CCC(C)CC3)cc2c1 (configuration not stated)
EC50 [1]: > 195 µM (not active)

CC(C)(C)OC(=O)N[C@@H](Cc1ccccc1)C(=O)NC[C@H]1CC[C@H](C(=O)N[C@@H](CC(=O)O)C(=O)O)CC1
EC50 [1]: > 195 µM (not active)

CSc1nc(C)c(CCOC(=O)c2ccccc2)c(O)n1
AC50 (Cytochrome P450 2C9): 20 µM (inconclusive)

CCCNC(=O)c1c(C)cc(=O)oc1C
AC50 (Cytochrome P450 2C9): 0.112 µM (inconclusive)

Cc1cc(C)cc(NC(=O)N2CCCC2C(=O)Nc2ccc(-n3cnnn3)c(C)c2)c1 (configuration not stated)
AC50 (Cytochrome P450 2C9): 20 µM (inconclusive)

C=CCN1C(=O)C(Cc2ccc(OC)cc2)S/C1=N/N=C/c1ccco1 (configuration not stated)
EC50 [1]: > 195 µM (not active)

C/C(=N\Nc1nc2ccccc2[nH]1)c1ccc2c(c1)OCCO2
EC50 [2]: 1.89 µM (active) | EC50 [3]: > 60 µM (not active)

N=C(N)N/N=C/c1cccc(Cl)c1Cl
EC50 [2]: 0.435 µM (active) | EC50 [3]: > 60 µM (not active)

CCOC(=O)c1cc2c(=O)n3ccccc3nc2n(C(C)C)/c1=N/C(=O)c1c(-c2ccccc2Cl)noc1C
EC50 [2]: 2.4 µM (active) | EC50 [3]: > 30 µM (not active)

Cc1nn2c(=O)c(Cl)c(C)[nH]c2c1-c1ccccc1
EC50 [1]: > 195 µM (not active)

Cc1c2c(n3c(nc4ccccc43)c1C#N)N(CCN(C)C)CC2
EC50 [2]: 0.117 µM (active) | EC50 [3]: 20.6 µM (active)

Cc1cccc(C)c1OC[C@H](C)N [(S)-MEXILETINE]
AC50 (Cytochrome P450 2D6): 7.94 µM (inconclusive) and 39.8 µM (inconclusive)

CN(C)c1cc2c(Nc3ccc4c(cnn4Cc4ccccc4)c3)ncnc2cn1 [GW282974X]
AC50 (Cytochrome P450 2C19; read-out: AC50): 25.1 µM (inconclusive) | AC50 (Cytochrome P450 2D6): 31.6 µM (inconclusive)
